This assay relates to A. thaliana (Col-0) plant. In kind it is in vivo, Arabidopsis thaliana. The settings on record: for Lateral root density with increasing concentration: 0 μM to 50 μM, FIG. 7; for Change in root morphology: lariat ether 20 μM; for Decrease in primary root length: vs PNS. From the text:
The effect treating a plant with a composition comprising a synthetic amphiphile on root morphology or other physical characteristics or attributes can be quantitated. For example, a change in primary root length can be determined by measuring the difference, if any, in primary root length of a plant treated with the composition compared to the average of a control sample of plants of the same type grown under identical conditions in the absence of the composition. A change in lateral root density can be determined by comparing the lateral root density of a plant treated with the composition to the average lateral root density of a sample grown under identical conditions in the absence of the composition. Lateral root density can be determined by dividing the number of lateral roots by the length of the primary root. In certain embodiments for any quantitated characteristic or attribute, the average value of the control is the average of a statistically significant population of control plants. For example, in certain illustrative embodiments disclosed herein, three trials of about 20 plants each were used to determine the average of the control.
Illustrative of certain embodiments, approximately 60 plants were grown on PNS media (no additives) and root lengths and the number of lateral roots were recorded for each. The data points were averaged to obtain the following baseline values: primary root length=40.4±3.8 mm and number of lateral roots=6.1±0.8, respectively. The lateral root density was obtained by dividing the number of lateral roots by the length (in mm) of the primary root. The control value was (6.1/[…]=) 0.15.
Test compounds were added to the growth medium as 0.2% by volume DMSO. […]
To make 500 mL PN media, 485 mL doubly distilled (“dd”) H2O was first added to an autoclave beaker. The following salts and nutrients were added to a beaker and mixed well: 5 mL of 250 mM of KPO4 (pH 5.5), 2.5 mL of 1M KNO3, 1 mL of 1M MgSO4, 1 mL of 1M Ca(NO3)2, 0.5 mL of Ferric EDTA (1000× or 49 mM) and 0.5 mL of Micronutrients (1000×). In a 1 L autoclaved bottle, 0.6% (3 g) of bacteriological agar was added, followed by 500 mL solution prepared above. The media was autoclaved using the Liquid-30 program.
PNS plates were used for plating sterile Arabidopsis thaliana (Columbia-0) seeds. A sterile stock of PNS agar was maintained. Sterile sucrose was added to PN media to make PNS media. To make PNS media containing 0.5% sucrose, 5 mL of 50% sucrose (sterile filtered) was added to 500 mL of PN agar and mixed well.
The stored PNS media was liquefied using a water bath and allowed to cool to 55° C. The type of plates, compounds, and concentrations to be used were confirmed while the media cooled. The plates were labeled on the cover and the bottom with all the relevant information. 50 mL sterile centrifuge tubes were used to measure 29,940 μL (29.94 mL) PNS media. A fresh sterile 50 mL tube was used for each plate. The desired amount and concentration of compound was added to the PNS media, mixed by inverting the tube and poured in the plate. Total volume of media and compound in each plate was kept constant at 30 mL. A maximum of 60 μL (0.2% by volume) compound was added per plate. For example: 60 μL of 25 mM compound was added to 29.94 mL PNS media to get final concentration of 50 μM compound in PNS media. Plates were incubated at room temperature for 2 hours before plating seeds on them.
Hands and bench area were washed thoroughly before beginning. Sterilizing solution was prepared in a sterile 15 mL centrifuge tube, by mixing 5 mL of 30% bleach and 5 μL of 10% Triton X-100. A. thaliana Col-0 seeds were added to sterile 1.5 mL micro-centrifuge tube. 500 μL of sterilizing solution (30% bleach+0.01% Triton X-100) was added to the seeds, vortexed for 3 seconds and incubated at room temperature for 8 minutes. After 8 minutes, bleach was removed and 1 mL autoclaved MilliQ water was added. […]

Setting [1] is: 100 nM in PNS, positive control.
The mark [2] stands for this setting: Table 2, 50 μM in PNS, no unit in table (method: millimeters).
Setting [3] is: Table 2, 20 μM in PNS, no unit in table (method: millimeters).

Several values for one entry are separate records, joined by “and”; a condition that tells them apart may be missing. Equal values may be shown once. Read-outs that look alike come from different tables or passages of the source.

As to `O=C(O)COc1ccc(Cl)cc1Cl` [2,4-D, 2,4-Dichlorophenoxyacetic acid, reference compound], under setting [1], the Lateral root density is 0.85 and 0.85 ± 0.12; the “Number of lateral roots” value was 3.4±0.6; the Primary root length is 3.9±0.6 mm.

`CCCCCC(=O)N1CCOCCOCCN(C(=O)CCCCC)CCOCCOCC1` [C6 lariat ether amide]: for the setting “Table 2, 50 μM”, the Lateral root density came to 0.15, the Number lateral roots is given as 5.6 and the “Percent decrease 1° root” value is on record as 4.9%. Under setting [2], this molecule returned a Primary root length of 38.6 mm.

With `CCCCCCN1CCOCCOCCN(CCCCCC)CCOCCOCC1` [C6 lariat ether], under “Table 2, 20 μM”, the Lateral root density turned out to be 0.18, the Number lateral roots was 6.6 and the “Percent decrease 1° root” value is given as 5.9%. This molecule also gave a Primary root length under setting [3] of 38.3 mm. In addition, where the note is “Table 2, 50 μM”, the Lateral root density is on record as 0.14, the Number lateral roots was determined as 4.6 and the “Percent decrease 1° root” value came out at 18.8%. The molecule further displayed a Primary root length under setting [2] of 33 mm.

For the molecule `CCCCCCC(=O)N1CCOCCOCCN(C(=O)CCCCCC)CCOCCOCC1` [C7 lariat ether amide], where the note is “Table 2, 20 μM”, the Lateral root density turned out to be 0.21, the Number lateral roots is on record as 4.5 and the “Percent decrease 1° root” value amounted to 45.3%. Under setting [3], this molecule gave a Primary root length of 22.9 mm. Further, for the setting “Table 2, 50 μM”, the Lateral root density was 0.65, the Number lateral roots was determined as 4.2 and the “Percent decrease 1° root” value was determined as 82.5%. Moreover, the Primary root length under setting [2] was 7.3 mm.

For the molecule `CCCCCCCC(=O)N1CCOCCOCCN(C(=O)CCCCCCC)CCOCCOCC1` [C8 lariat ether amide, N,N′-Dioctanoyl-4,13-diaza-18-crown-6], under “Table 2, 50 μM”, the Lateral root density came out at 0.17, the Number lateral roots is given as 5.2 and the “Percent decrease 1° root” value amounted to 23.2%. The molecule further had a Primary root length under setting [2] of 31.2 mm.

As for `CCCCCCCCN1CCOCCOCCN(CCCCCCCC)CCOCCOCC1` [C8 lariat ether, N,N′-Di-n-octyl-4,13-diaza-18-crown-6], the “Lateral root density with increasing concentration” value was “Linear increase in lateral root density” and the “Change in root morphology” value was “significant change in root morphology”. In addition, for the setting “Table 2, 20 μM”, the Lateral root density was determined as 0.64, the Number lateral roots came to 5.1 and the “Percent decrease 1° root” value is given as 83.4%. Under setting [3], the Primary root length came to 6.8 mm. Where the note is “Table 2, 50 μM”, the Lateral root density came to 1.38, the Number lateral roots turned out to be 2.2 and the “Percent decrease 1° root” value is on record as 96.1%. Also, under setting [2], the Primary root length came out at 1.6 mm.

On to `CCCCCCCCC(=O)N1CCOCCOCCN(C(=O)CCCCCCCC)CCOCCOCC1` [C9 lariat ether amide], for which, under “Table 2, 20 μM”, the Lateral root density was found to be 0.19, the Number lateral roots was 1.6 and the “Percent decrease 1° root” value is reported as 78.2%. Besides, under setting [3], the Primary root length is 9.2 mm. For the same molecule, for the setting “Table 2, 50 μM”, the Lateral root density worked out at 0.13, the Number lateral roots was found to be 2 and the “Percent decrease 1° root” value was found to be 62.6%. Under setting [2], this molecule gave a Primary root length of 15.7 mm.

In the case of `CCCCCCCCCC(=O)N1CCOCCOCCN(C(=O)CCCCCCCCC)CCOCCOCC1` [C10 lariat ether amide, N,N′-Didecanoyl-4,13-diaza-18-crown-6], under “Table 2, 50 μM”, the Lateral root density is recorded as 0.19, the Number lateral roots is recorded as 0.6 and the “Percent decrease 1° root” value came out at 92.4%. In addition, the Primary root length under setting [2] came to 3.1 mm.

Turning to `CCCCCCCCCCN1CCOCCOCCN(CCCCCCCCCC)CCOCCOCC1` [C10 lariat ether, N,N′-Didecyl-4,13-diaza-18-crown-6], the “Lateral root density with increasing concentration” value is “Linear increase in lateral root density” and the “Change in root morphology” value is reported as “significant change in root morphology”. Besides, where the note is “Table 2, 20 μM”, the Lateral root density stood at 1.14, the Number lateral roots was found to be 4 and the “Percent decrease 1° root” value amounted to 91.4%. Further, the Primary root length under setting [3] is 3.5 mm. Where the note is “Table 2, 50 μM”, the Lateral root density worked out at 1.75, the Number lateral roots was 3.5 and the “Percent decrease 1° root” value turned out to be 95.1%. Besides, under setting [2], the Primary root length came out at 2 mm.

For the molecule `CCCCCCCCCCCC(=O)N1CCOCCOCCN(C(=O)CCCCCCCCCCC)CCOCCOCC1` [C12 lariat ether amide], for the setting “Table 2, 50 μM”, the Lateral root density is given as 0.18, the Number lateral roots came out at 7 and the “Percent decrease 1° root” value came to 1.73%. Under setting [2], the Primary root length is 39.9 mm.

As to `CCCCCCCCCCCCN1CCOCCOCCN(CCCCCCCCCCCC)CCOCCOCC1` [C12 lariat ether], under “Table 2, 20 μM”, the Lateral root density was found to be 0.17, the Number lateral roots was determined as 6 and the “Percent decrease 1° root” value is reported as 1.3%. Also, the Primary root length under setting [3] is 40.1 mm. Also, under “Table 2, 50 μM”, the Lateral root density came out at 0.15, the Number lateral roots is recorded as 4.9 and the “Percent decrease 1° root” value was found to be 11.5%. Also, the Primary root length under setting [2] was 35.9 mm.

On to `CCCCCCCCCCCCC(=O)N1CCOCCOCCN(C(=O)CCCCCCCCCCCC)CCOCCOCC1` [C13 lariat ether amide], for which the Lateral root density was determined as 0.14 (Table 2, 20 μM) and 0.14 (Table 2, 50 μM). The Number lateral roots reads like this: (Table 2, 20 μM) 5.1; (Table 2, 50 μM) 4.2. The “Percent decrease 1° root” value is given as 11.8% (Table 2, 20 μM) and 14.9% (Table 2, 50 μM). The Primary root length was found to be 36.9 mm under setting [3] and 35.6 mm under setting [2].

Regarding `c1ccc(CN2CCOCCOCCN(CCCCCCCCCCCCCCN3CCOCCOCCN(CCCCCCCCCCCCCCN4CCOCCOCCN(Cc5ccccc5)CCOCCOCC4)CCOCCOCC3)CCOCCOCC2)cc1` [C14 hydraphile (2)], the “Number of lateral roots” value (hydraphile 20 μM) was found to be 6.2±0.3. Moreover, the Primary root length turned out to be 14 ± 2 mm (hydraphile 20 μM in PNS media); 14±2 mm (hydraphile 20 μM in PNS media, listed as compound 2); 0.7 ± 0.2 mm (hydraphile 50 μM in PNS media); 0.7±0.2 mm (hydraphile 50 μM in PNS media, listed as compound 2). The “Decrease in primary root length” value came out at 63% (hydraphile 20 μM) and 98% (hydraphile 50 μM). In addition, for the setting “hydraphile 20 μM, vs control”, the “Increase in lateral root density” value is 4 fold. In addition, the Lateral root density (hydraphile 20 μM, lateral roots divided by primary root length) came to 0.48±0.08.

As to `CCCCCCCCCCCCCC(=O)N1CCOCCOCCN(C(=O)CCCCCCCCCCCCC)CCOCCOCC1` [C14 lariat ether amide], for the setting “Table 2, 50 μM”, the Lateral root density came out at 0.21, the Number lateral roots was 8.6 and the “Percent decrease 1° root” value was determined as 0%. For the same molecule, the Primary root length under setting [2] was 41.9 mm.

On to `CCCCCCCCCCCCCCN1CCOCCOCCN(CCCCCCCCCCCCCC)CCOCCOCC1` [C14 lariat ether], for which the Lateral root density runs as follows: (Table 2, 20 μM) 0.17; (Table 2, 50 μM) 0.21. Moreover, the Number lateral roots (Table 2, 20 μM) came out at 6.9 and the Number lateral roots (Table 2, 50 μM) turned out to be 4.9. The “Percent decrease 1° root” value reads like this: (Table 2, 20 μM) 0%; (Table 2, 50 μM) 48.4%. In addition, the Primary root length runs as follows: under setting [3], 41.5 mm; under setting [2], 20.9 mm.

These data come from patent US10548319B2, “Compositions and methods for synthetic amphiphile-induced changes in plant root morphology” (The Curators of the University of Missouri, priority 2014, dated 2020).
